# Results taken from patent publication US8492388B2 (priority 2008, dated 2013).
# Like-named read-outs stand apart in the source and are kept apart here.
# Experiment: Measurement of logP values by HPLC on reversed phase columns (EEC directive 79/831 Annex V.A8)
# Conditions: for logp: HPLC reversed phase, pH 2,7, 0.1% formic acid in water / acetonitrile gradient
Structure (SMILES),chromatographic logP,logp,chromatographic logP (pH 2.7)
"COC(=O)c1cccc(CCl)c1 [3-(chloromethyl)benzoate, methyl 3-(chloromethyl)benzoate]",2.64,–,–
COCc1cccc(C(=O)O)c1 [3-(methoxymethyl)benzoic acid],1.33,–,–
Cn1nnnc1C(=O)c1cccc(OC(F)(F)F)c1 [(1-methyl-1H-tetrazol-5-yl)[3-(trifluoromethoxy)phenyl]methanone],2.96,–,–
Cn1nnnc1C(=NOCc1cccc(N)n1)c1cccc(OC(F)(F)F)c1 [Example 5],–,1.69,–
C=CCCOC(=O)Nc1cccc(CON=C(c2cccc(OC(F)(F)F)c2)c2nnnn2C)n1 [Example 8],–,4.2,–
C=CCCOC(=O)Nc1nc(CON=C(c2cccc(SC)c2)c2nnnn2C)cs1 [Example 21],–,3.64,–
"CN(C)c1cccc(C(=NOCc2cccc(N)n2)c2nnnn2C)c1 [Example 22, 6-{[({[3-(dimethylamino)phenyl](1-methyl-1H-tetrazol-5-yl)methylene}amino)oxy]methyl}pyridin-2-amine]",–,–,1.19
C#CCCOC(=O)Nc1cccc(CON=C(c2cccc(N(C)C)c2)c2nnnn2C)n1 [Example 23],–,3.21,–
C=CCCOC(=O)Nc1cccc(CON=C(c2cccc(N(C)C)c2)c2nnnn2C)n1 [Example 24],–,3.64,–
"CN(C)c1cccc(C(=NOCc2cccc(NC(=O)C(F)(F)Oc3ccccc3)n2)c2nnnn2C)c1 [Example 30, N-(6-{[({[3-(dimethylamino)phenyl](1-methyl-1H-tetrazol-5-yl)methylene}amino)oxy]methyl}pyridin-2-yl)-2,2-difluoro-2-phenoxyacetamide]",4.14,–,4.14
CON(C)C(=O)Nc1cccc(CON=C(c2cccc(N(C)C)c2)c2nnnn2C)n1 [Example 31],–,2.71,–
"COCc1cccc(C(=NOCc2cccc(NC(=O)OC(C)(C)C)n2)c2nnnn2C)c1 [Example 32, tert-butyl (6-{[({[3-(methoxymethyl)phenyl](1-methyl-1H-tetrazol-5-yl)methylene}amino)oxy]methyl}pyridin-2-yl)carbamate]",3.71,–,3.71
CC#CCOC(=O)Nc1cccc(CON=C(c2cccc(COC)c2)c2nnnn2C)n1 [Example 33],–,3.21,–
CCCCCOC(=O)Nc1cccc(CON=C(c2cccc(COC)c2)c2nnnn2C)n1 [Example 38],–,4.18,–
"Cn1nnnc1C(=NOCc1csc(N)n1)c1cccc(OC(F)(F)F)c1 [Example 46, 4-{[({(1-methyl-1H-tetrazol-5-yl)[3-(trifluoromethoxy)phenyl]methylene}amino)oxy]methyl}-1,3-thiazol-2-amine]",2.1,–,2.1
"Cn1nnnc1C(=NOCc1csc(NC(=O)COc2ccccc2)n1)c1cccc(OC(F)(F)F)c1 [Example 53, N-(4-{[({(1-methyl-1H-tetrazol-5-yl)[3-(trifluoromethoxy)phenyl]methylene}amino)oxy]methyl}-1,3-thiazol-2-yl)-2-phenoxyacetamide]",3.99,–,3.99
Cn1nnnc1C(=NO)c1cccc(OC(F)(F)F)c1 [N-hydroxy-1-(1-methyl-1H-tetrazol-5-yl)-1-[3-(trifluoromethoxy)phenyl]methanimine],2.37,–,–
COCc1cccc(C(=NO)c2nnnn2C)c1 [N-hydroxy-1-[3-(methoxymethyl)phenyl]-1-(1-methyl-1H-tetrazol-5-yl)methanimine],1.54,–,–
COCc1cccc(C(=O)N(C)OC)c1 [N-methoxy-3-(methoxymethyl)-N-methylbenzamide],1.43,–,–
CON(C)C(=O)c1cccc(OC(F)(F)F)c1 [N-methoxy-N-methyl-3-(trifluoromethoxy)benzamide],2.41,–,–
COCc1cccc(C(=O)c2nnnn2C)c1 [[3-(methoxymethyl)phenyl](1-methyl-1H-tetrazol-5-yl)methanone],2.01,–,–
